In patent US6384173B1, “Silicone functionalized triclosan” (Siltech LLC, priority 2001, dated 2002):
Read-outs that look alike come from different tables or passages of the source.

Tests used:
[1] = Thermal Gravimetric Analysis (weight percent lost); type: physicochemical; conditions: Perkin-Elmer TGA 7, temperature scanned from 40 to 250 degrees at 20 degree C./minute, at completion of scan
Description: Thermal Gravimetric Analysis
Measurements were obtained of the weight percent lost for the samples below using a Perkin-Elmer TGA 7 where the temperature was scanned from 40° to 250° at 20° C./minute. At the completion of the temperature scan for each, the following results were obtained: […]

[2] = TGA, 40 to 250 degrees at 20 degree C./minute; value marked (U.S. Pat. No. 6,197,072); cited from earlier work

Molecule | % Weight Loss [1] | % Weight Loss [2]
Oc1cc(Cl)ccc1Oc1ccc(Cl)cc1Cl [Triclosan, triclosan] | 62% | 
Triclosan Acetate |  | 12 (U.S. Pat. No. 6,197,072) %
